Here are results for two compounds from the NIST ThermoML archive (doi:10.1016/j.tca.2009.10.010).

± gives the expanded uncertainty stated by the source.

The conditions of data set [1]: Crystal; visual observation.
Data set [2] is described as follows: Molar enthalpy of transition or fusion. The conditions noted are these: Crystal; DSC.

Take `Oc1cccc(O)c1` [1,3-benzenediol]: the Normal melting temperature in data set [1] is 110.50 ± 1.1 °C. For the same compound, the “Molar enthalpy of transition or fusion” value in data set [2] was found to be 5.31 ± 0.158 kcal/mol.
For `Ic1ccc(I)cc1` [1,4-diiodobenzene] the same measures were 130.00 ± 1.1 °C and 5.77 ± 0.17 kcal/mol.
